Like-named read-outs stand apart in the source and are kept apart here.
How the values were obtained:
[1] = Pharmacokinetic profile in fasted beagle dogs; type: in vivo; settings: dog, blood, po, 1 mg/kg; for Cmax / AUC(0-t): 3 fasted beagle dogs; for AUC(0-t): read-out: AUC0-24
Description: The API is Compound A, or a pharmaceutically acceptable salt thereof. Bioavailability is determined in vivo by dosing trial formulations and/or other formulations of the active pharmaceutical ingredient (API) to Beagle dogs at a dose of 1 mg/kg of the API and then measuring the amount of API in the serum or blood as a function of time. The spray dried particles from Spray Dry Process I were made into granules as follows. The particles were blended in a suitable blender (V or Bohle) with microcrystalline cellulose (diluent/compression aid), lactose (diluent/compression aid), croscarmellose sodium (a disintegrant), colloidal silicon dioxide (a glidant), and magnesium stearate (a lubricant). The blended powders were then roller compacted into granules, subjected to extragranular lubrication, and filled into capsules.

[2] = Storage of neat amorphous spray dried drug in open container, crystallization; type: physicochemical; settings: neat amorphous drug generated by spray drying
From the text: It is well understood that crystallization tendency varies dramatically across active pharmaceutical ingredients (Journal of Pharmaceutical Sciences, Vol. 99, No. 9, September 2010) and the rate of crystallization is a function of the thermodynamic driving force and the mobility of the system (Angell, C. A., Formation of Glasses from Liquids and Biopolymers. Science, 1995. 267(5206): p. 1924-1935. Mullin, J. W., Crystallization. 4th ed. 2001, Oxford: Reed Educational and Professional Publishing Ltd. Hoffman, J. D., Thermodynamic Driving Force in Nucleation and Growth Processes. Journal of Chemical Physics, 1958. 29(5): p. 1192-1193. Adam, G. and Gibbs, J. H., On Temperature Dependence of Cooperative Relaxation Properties in Glass-Forming Liquids. Journal of Chemical Physics, 1965. 43(1): p. 139-146. Ediger, M. D., Supercooled liquids and glasses. Journal of Physical Chemistry, 1996. 100(31): p. 13200-13212.). […] Neat amorphous drug generated by spray drying crystallizes within 2 weeks when stored in an open container at 5° C./ambient relative humidity (RH), 30° C./65% RH, 40° C./75% RH, and 60° C./ambient RH.

[3] = capsule of spray dried dispersion: 10% Compound A, 40% HPMCAS-LG
[4] = comparison capsule: 30% crystalline Compound A without polymer, 5% sodium lauryl sulfate

- Tmax [1]: 4 h
- Cmax [1, 3]: 7.23 ± 0.99 µM
- AUC(0-t) [1, 3]: 137 ± 25.3 µM·h
- Cmax [1, 4]: 3.46 ± 1.59 µM
- AUC(0-t) [1, 4]: 52.4 ± 15.9 µM·h
- time to crystallization ([2]; 5° C./ambient RH): ≤ 2 weeks
- time to crystallization ([2]; 30° C./65% RH): ≤ 2 weeks
- time to crystallization ([2]; 40° C./75% RH): ≤ 2 weeks
- time to crystallization ([2]; 60° C./ambient RH): ≤ 2 weeks
SMILES: Cn1c(Cn2ccc(C(F)(F)F)c(Oc3cc(Cl)cc(C#N)c3)c2=O)n[nH]c1=O [Compound A, 3-chloro-5-({1-[(4-methyl-5-oxo-4,5-dihydro-1H-1,2,4-triazol-3-yl)methyl]-2-oxo-4-(trifluoromethyl)-1,2-dihydropyridin-3-yl}oxy)benzonitrile]
